Results reported in patent US20110027341A1, “DEVICE FOR IN SITU PRODUCTION AND TOPICAL ADMINISTRATION OF ALLICIN” (YEDA RESEARCH AND DEVELOPMENT CO., LTD. at the Weizmann …, priority 2008, published 2011).

Assays:
Trichomonas vaginalis = experiment: In vitro growth of Trichomonas vaginalis trophozoites with pure allicin (hemacytometer count); format: cell-based; details: 24 hours, 37° C.
Protocol: The effect of allicin on the different microorganisms was tested in (i) sensitivity tests to different concentrations of pure allicin in liquid culture tubes containing full nutrient medium; […] The effects of allicin on Trichomonas vaginalis was tested in liquid cultures, and the viability of the trophozoites after exposure to different concentrations of allicin was determined by the methylene blue vital dye exclusion as previously described (Kiernan, 1974). […] Aliquotes were taken following incubation of 24 hours and the number of trophozoites was counted using a hemacytometer.

various microorganisms = experiment: Sensitivity tests of microorganisms to pure allicin and to allicin from dry alliin/alliinase mixtures (liquid culture, disk filters on agar, tampons); format: cell-based; details: for LD50: range over the various microorganisms tested
Protocol: In this experiment, the effect of allicin released upon wetting of the medicated tampons on various microorganisms, kindly provided by Dr. N. Keller from the clinical microbiology laboratory of the Sheba Medical Center (Tel HaShomer, Israel), was tested. The list of microorganisms included various types of yeasts, in particular, Saccharomyces cerevisiae, Candida albicans and Candida Glabrata; and several types of bacteria, in particular, group B Streptococci, methicillin-resistant Staphylococcus aureus (MRSA) and vancomycin-intermediate Staphylococcus aureus (VISA). In addition, two strains of Trichomonas vaginalis, one adherent to the plastic of the tube and the other non-adherent, were tested.
In addition, various mixtures of dry alliin and dry alliinase were placed inside the cleft of vaginal tampons to yield different amounts of allicin in tubes containing liquid medium with bacteria or yeasts, wherein following overnight incubation, aliquots were taken from the tubes and plated on nutrient agar plates, and the number of colonies developed was determined in comparison to untreated controls. The effects of allicin on Trichomonas vaginalis was tested in liquid cultures, and the viability of the trophozoites after exposure to different concentrations of allicin was determined by the methylene blue vital dye exclusion as previously described (Kiernan, 1974).
Dry glass fiber filters on which a solution containing 5, 20 or 30 μg of pure allicin was dripped just before placing on the seeded agar served as standards, and dry glass fiber filters that were placed on the seeded agar were used as controls.

[1] = kept at cold temperatures, pH around 6; cited from earlier work
[2] = tested on: nail fungus (onychomycosis); experiment: Repeated topical application of pure allicin on infected toenails of volunteers; format: in vivo
Protocol: In this preliminary study, the effect of repeated topical application of pure allicin on an infected nail was examined. The study was performed on a group of 10 volunteers infected with nail fungus (onychomycosis), wherein only toenails showing visible signs of being infected with a nail fungus were chosen for the topical treatment. […] The allicin solution was kept at 4° C. in citrate buffer pH 6.0 containing 1 M urea in a dark flask. A round cotton pad was cut in the approximate dimensions and size of the infected toenail (1.3 cm diameter×0.3 cm thick). 0.5 ml of the allicin solution was slowly delivered with a pipette to the surface of the cotton pad and the wet cotton pad was placed on the nail, taking precaution so as not to touch the skin surrounding the nail. The toe with the cotton pad was then covered overnight with a strip made of nylon to secure the pad on the nail and to prevent the spread of the volatile smelly odor of allicin. This treatment was repeated every night for 14 days. […] The treatment was then repeated once a week until all the infected regions of the old nail were cut off.

Trichoderma hyphae = experiment: Antifungal activity of the two-filter delivery system on agar plates (halo of inhibition); format: cell-based; details: for inhibition of fungal growth (halo around filter): filters placed 6 h after seeding 5×10^6 spores, 28° C., overnight incubation, FIG. 3A; for inhibition of fungal growth (halo around filter), mature growth: filters placed after 24 hours incubation, further 16 h, FIG. 3B
Protocol: In this experiment, the effect of allicin released upon wetting of the two-filter delivery system on spores of Trichoderma hyphae was tested. In particular, four Petri dish plates containing nutrient agar for fungal growth were seeded with 5×10^6 spores of a test soil fungi (Trichoderma hyphae) and incubated at 28° C. […] Additional two plates in each of which a single glass fiber filter containing either the substrate or the enzyme were placed were used as controls and treated the same way. A fourth plate containing only the fungus served as the positive control, and a fifth plate without any fungus was used as the negative control.
A similar experiment was carried out with identical filters on Petri dish plates that contained a more mature Trichoderma hyphae growth (after 24 hours incubation from seeding of the same number of spores). The filters were placed as described above and the plates were incubated for another 16 h.

[3] = Storage stability of dry alliin/alliinase components and filters (potential to produce allicin); format: physicochemical; details: dry form at room temperature

Compound | Trophozoites (×10^4) (Trichomonas vaginalis; allicin 5 μg/ml) | Trophozoites (×10^4) (Trichomonas vaginalis; allicin 10 μg/ml) | Trophozoites (×10^4) (Trichomonas vaginalis; allicin 15 μg/ml) | Trophozoites (×10^4) (Trichomonas vaginalis; allicin 25 μg/ml) | killing of microorganisms (various microorganisms; all experiments, irrespective of type of microorganism, FIGS. 4-5 and Table 1) | LD50 (various microorganisms) [µg/mL] | LD50 (various microorganisms; as μM allicin) [µM] | degradation rate [1] [%/month] | outcome of infected toenails after treatment ([2]; 0.5 ml of 0.5 mg/ml allicin solution (citrate buffer pH 6.0, 1 M urea) on cotton pad overnight, every night 14 days, then once a week, 10 volunteers) | tolerability: treatment not completed because of garlic smell ([2]; 10 volunteers) | color of the fungus in the nail ([2]; by the third day of the treatment) | time toenails remained fungus free ([2]; in some cases) | color of the emerging new nail ([2]; within two weeks) | inhibition of fungal growth (halo around filter) (Trichoderma hyphae) | inhibition of fungal growth (halo around filter), mature growth (Trichoderma hyphae) | preservation of potential for producing allicin [3]
C=CCS[S+]([O-])CC=C (stereo not drawn) [allicin, diallyl thiosulfinate] | 48 ×10^4 | 45 ×10^4 | 8 ×10^4 | 3 ×10^4 | effective killing | 8 to 15 | 20 to 50 | 8 | eight individuals had a remarkably healthy regeneration of their toenails | Two individuals did not complete the treatment | turned from dark green to yellowish white | over 2 years | resumed its natural color |  |  | 
alliin |  |  |  |  |  |  |  |  |  |  |  |  |  | No such halos were seen | such halo is not visible | 
alliinase |  |  |  |  |  |  |  |  |  |  |  |  |  | No such halos were seen | such halo is not visible | preserved their potential for producing allicin for several months
